Legend:
Salmonella typhimurium = experiment: Minimal inhibitory concentration test; type: cell-based; settings: Gram-negative bacteria
Description: (§1) Antimicrobial activity of the peptide of the invention was measured by its minimal inhibitory concentration against various test microorganisms (see: Table 1).
(§2) On the other hand, comparison of the antimicrobial activity of the peptide with a commercially available Magainin 2 (Sigma, USA) was followed and summarized in Table 2 below.

Staphylococcus aureus = experiment: Minimal inhibitory concentration test; type: cell-based; settings: Gram-positive bacteria
Description: as §1, §2

Magainin 2 showed a Minimal inhibitory concentration (Salmonella typhimurium) of 25 mg/mL and a Minimal inhibitory concentration (Staphylococcus aureus) of 13 mg/mL.

Source: US5936063A, “Antimicrobial peptide isolated from Bufo bufo gargarizans” (priority 1998, dated 1999)
